Results from patent US12357596B2, “Compounds for prevention and treatment of obesity and related disorders” (ABREXA PHARMACEUTICALS, INC., priority 2019, dated 2025).
Marks after values point to notes of the source that are not given here.

Assay: 28-Day Oral (Gavage) Toxicity Study in Beagle Dogs with a 14-Day Recovery Period at 0, 1, 10 and 30 mg/kg/day (body weight)
Type: in vivo
Experimental: J147 was administered once daily to beagle dogs via oral gavage for up to 28 days at a daily dose of 0, 1, 10 and 30 mg/kg. J174 was prepared in a vehicle formulation comprising 5% ethanol, 5% DMSO and 90% corn oil (v/v/v). Block Lab Diet (Certified Canine Diet #5007, PMI Nutrition International, Inc.) was offered via limited feedings, except during designated periods. The animals were offered food 2 hours postdose on each dosing day for 2 to 5 hours. Food was offered 2 to 5 hours/day during the acclimation period and during the recovery period. Tap water was available ad libitum via an automatic watering system. The study protocol is shown below in Table 10.

COc1cccc(/C=N/N(C(=O)C(F)(F)F)c2ccc(C)cc2C)c1 [J147]
Conclusion on body weight (dogs, 28-day oral gavage): induces weight loss and inhibits weight gain
Body weight and food consumption finding (dogs, Groups 3 and 4, 10 mg/kg/day and 30 mg/kg/day): Body weight loss with lower food consumption
Weight lost compared to pre-test levels (up to) (dogs, males and females, 10 mg/kg/day): up to −9%
Body Weight, Mean (female dogs, 1 mg/kg/day, Day 3): 6.463 kg
Body Weight, Mean (female dogs, 1 mg/kg/day, Day 7): 6.513 kg
Body Weight, Mean (female dogs, 1 mg/kg/day, Day 10): 6.675 kg
Body Weight, Mean (female dogs, 1 mg/kg/day, Day 14): 6.688 kg
Body Weight, Mean (female dogs, 1 mg/kg/day, Day 17): 6.763 kg
Body Weight, Mean (female dogs, 1 mg/kg/day, Day 21): 6.788 kg
Body Weight, Mean (female dogs, 1 mg/kg/day, Day 24): 6.813 kg
Body Weight, Mean (female dogs, 1 mg/kg/day, Day 28): 6.813 kg
Body Weight, Mean (female dogs, 1 mg/kg/day, Day −1 (pre-dose)): 6.413 kg
Animals that lost weight (female dogs, 10 mg/kg/day): 4 of 4
Body Weight, Mean (female dogs, 10 mg/kg/day, Day 3): 6.363 kg
Body Weight, Mean (female dogs, 10 mg/kg/day, Day 7): 6.250 kg
Body Weight, Mean (female dogs, 10 mg/kg/day, Day 10): 6.275 kg
Body Weight, Mean (female dogs, 10 mg/kg/day, Day 14): 6.150 kg
Body Weight, Mean (female dogs, 10 mg/kg/day, Day 17): 6.163 kg
Body Weight, Mean (female dogs, 10 mg/kg/day, Day 21): 6.063 kg
Body Weight, Mean (female dogs, 10 mg/kg/day, Day 24): 6.038 kg
Body Weight, Mean (female dogs, 10 mg/kg/day, Day 28): 5.988 kg
Body Weight, Mean (female dogs, 10 mg/kg/day, Day −1 (pre-dose)): 6.325 kg
Animals that lost weight (female dogs, 30 mg/kg/day): 6 of 6
Weight lost, of pretest levels (up to) (female dogs, 30 mg/kg/day): ≤ −17%
Body Weight, Mean (female dogs, 30 mg/kg/day, Day 3): 6.308 kg
Body Weight, Mean (female dogs, 30 mg/kg/day, Day 7): 6.242 kg
Body Weight, Mean (female dogs, 30 mg/kg/day, Day 10): 6.192 kg
Body Weight, Mean (female dogs, 30 mg/kg/day, Day 14): 6.033 kg
Body Weight, Mean (female dogs, 30 mg/kg/day, Day 17): 5.858^a kg
Body Weight, Mean (female dogs, 30 mg/kg/day, Day 21): 5.700^b kg
Body Weight, Mean (female dogs, 30 mg/kg/day, Day 24): 5.575^b kg
Body Weight, Mean (female dogs, 30 mg/kg/day, Day 28): 5.525^b kg
Body Weight, Mean (female dogs, 30 mg/kg/day, Day −1 (pre-dose)): 6.258 kg
Body Weight, Mean (male dogs, 1 mg/kg/day, Day 3): 7.850 kg
Body Weight, Mean (male dogs, 1 mg/kg/day, Day 7): 7.838 kg
Body Weight, Mean (male dogs, 1 mg/kg/day, Day 10): 8.000 kg
Body Weight, Mean (male dogs, 1 mg/kg/day, Day 14): 8.000 kg
Body Weight, Mean (male dogs, 1 mg/kg/day, Day 17): 8.075 kg
Body Weight, Mean (male dogs, 1 mg/kg/day, Day 21): 8.200 kg
Body Weight, Mean (male dogs, 1 mg/kg/day, Day 24): 8.325 kg
Body Weight, Mean (male dogs, 1 mg/kg/day, Day 28): 8.250 kg
Body Weight, Mean (male dogs, 1 mg/kg/day, Day −1 (pre-dose)): 7.813 kg
Animals that lost weight (male dogs, 10 mg/kg/day): 3 of 4
Body Weight, Mean (male dogs, 10 mg/kg/day, Day 3): 7.588 kg
Body Weight, Mean (male dogs, 10 mg/kg/day, Day 7): 7.675 kg
Body Weight, Mean (male dogs, 10 mg/kg/day, Day 10): 7.763 kg
Body Weight, Mean (male dogs, 10 mg/kg/day, Day 14): 7.625 kg
Body Weight, Mean (male dogs, 10 mg/kg/day, Day 17): 7.563 kg
Body Weight, Mean (male dogs, 10 mg/kg/day, Day 21): 7.663 kg
Body Weight, Mean (male dogs, 10 mg/kg/day, Day 24): 7.638 kg
Body Weight, Mean (male dogs, 10 mg/kg/day, Day 28): 7.500 kg
Body Weight, Mean (male dogs, 10 mg/kg/day, Day −1 (pre-dose)): 7.563 kg
Animals that lost weight (male dogs, 30 mg/kg/day): 5 of 6
Weight lost, of pretest levels (up to) (male dogs, 30 mg/kg/day): up to −12%
Body Weight, Mean (male dogs, 30 mg/kg/day, Day 3): 7.900 kg
Body Weight, Mean (male dogs, 30 mg/kg/day, Day 7): 7.933 kg
Body Weight, Mean (male dogs, 30 mg/kg/day, Day 10): 8.008 kg
Body Weight, Mean (male dogs, 30 mg/kg/day, Day 14): 7.967 kg
Body Weight, Mean (male dogs, 30 mg/kg/day, Day 17): 7.883 kg
Body Weight, Mean (male dogs, 30 mg/kg/day, Day 21): 7.800 kg
Body Weight, Mean (male dogs, 30 mg/kg/day, Day 24): 7.825 kg
Body Weight, Mean (male dogs, 30 mg/kg/day, Day 28): 7.600 kg
Body Weight, Mean (male dogs, 30 mg/kg/day, Day −1 (pre-dose)): 7.908 kg
